# Data: US20220233529A1, “COMBINATION THERAPY COMPRISING A2A/A2B INHIBITORS, PD-1/PD-L1 INHIBITORS, AND ANTI-CD73 ANTIBODIES” (Incyte Corporation, priority 2020, published 2022)
# Read-outs that look alike come from different tables or passages of the source.
# Assays:
# Adenosine A2A Receptor = biological target: T1, Adenosine A2A Receptor (Homo sapiens, UniProt P29274); test: A2A Tag-lite HTRF assay; assay type: binding; conditions: Tag-lite Adenosine A2A labeled cells; fluorescent antagonist ligand 12.5 nM
# T1 construct: Tag-lite label (own knowledge: SNAP-tag fusion labeled with terbium); purchased CisBio C1TT1A2A
# Method: Test compounds were first serially diluted in DMSO and 100 nL added to the plate wells before the addition of other reaction components. The final concentration of DMSO was 1%. Tag-lite® Adenosine A2A labeled cells (CisBio C1TT1A2A) were diluted 1:5 into Tag-lite buffer (CisBio LABMED) and spun 1200 g for 5 mins.
# [1] = biological target: T2, human adenosine A2B receptor (Homo sapiens, UniProt P29275); test: Adenosine A2B Receptor cyclic AMP GS Assay; assay type: cell-based
# T2 construct: host or cells: HEK-293 (stably transfected)
# T2 sequence (P29275 1-332): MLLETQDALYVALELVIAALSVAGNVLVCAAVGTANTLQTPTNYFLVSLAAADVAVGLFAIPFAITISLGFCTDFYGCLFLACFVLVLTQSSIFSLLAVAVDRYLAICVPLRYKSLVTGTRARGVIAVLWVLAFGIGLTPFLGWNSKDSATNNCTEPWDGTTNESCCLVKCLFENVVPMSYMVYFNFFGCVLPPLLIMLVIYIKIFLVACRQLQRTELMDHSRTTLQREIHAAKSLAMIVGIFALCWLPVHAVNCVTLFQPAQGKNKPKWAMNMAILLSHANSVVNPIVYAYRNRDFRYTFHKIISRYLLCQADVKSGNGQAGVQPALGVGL
# Method: Stably transfected HEK-293 cells expressing the human adenosine A2B receptor (Perkin Elmer) were maintained in MEM culture medium with 10% FBS and 100 μg/mL Geneticin (Life Technologies). 18 to 24 hours prior to assay, geneticin was removed from culture. The cisbio cAMP-GS Dynamic kit utilizing the FRET (Fluorescence Resonance Energy Transfer) technology was used to measure cAMP accumulation in the cells. Compounds of the present disclosure at an appropriate concentration were mixed with 10000 cells/well in white 96 well half area plates (Perkin Elmer) for 30 min at RT gently shaking. […] Detection reagents, d2-labeled cAMP (acceptor) and anti-cAMP cryptate (donor) were added to each well for 60 min at RT gently shaking.
# [2] = test system: human breast adenocarcinoma tumor, MDA-MB-231; test: Anti-tumor efficacy in humanized murine host carrying MDA-MB-231 tumor; assay type: in vivo, human CD34+ reconstituted mice; conditions: vs Vehicle + IgG isotype, ANTIBODY Y 10 mg/kg i.p. every 5 days, retifanlimab 1 mg/mL i.p. every 5 days, Compound 9 10 mg/kg p.o. b.i.d., dosing day 7-35
# Method: On day 7, and every 3 to 4 days subsequently, tumors were measured by Vernier caliper and tumor volume was calculated by the formula, Volume=[L (long dimension)×W^2 (short dimension)]/2. Based on these measurements, mice were randomized into 8 treatment groups of 10 mice each with an average starting tumor volume of 180 mm^3. The studied agents were formulated and administered as follows: ANTIBODY Y was diluted to a final concentration of 1 mg/mL in phosphate-buffered saline and administered by intraperitoneal (i.p.) injection at 10 mL/kg to mice for a dose of 10 mg/kg, every 5 days. Retifanlimab (Macrogenics) was diluted to 1 mg/mL and dosed i.p., every 5 days. For combination treatments, the two antibodies were co-formulated to a concentration of 1 mg/mL, each. The oral vehicle was 5% N,N-dimethylacetamide in 0.5% methyl-cellulose in 50 mM citrate buffer, pH 3.0 (all reagents obtained from Sigma) and was administered by oral gavage (p.o.) twice daily (b.i.d.).
# Dosing began at day 7, and ran for 28 days, through day 35. […]
# Tumor Growth Inhibition (TGI), defined as (1-treatment group volume)/control group volume)×100 was analyzed for the whole study on day 47, the last day prior to some animals leaving the study at their endpoint. […]
# [3] = HEK-293 cells expressing human A2B, agonist NECA 12 nM, cAMP accumulation, read-out: A2B—cAMP_EC50
# T1 sequence (P29274 whole entry, the tested form may be a part): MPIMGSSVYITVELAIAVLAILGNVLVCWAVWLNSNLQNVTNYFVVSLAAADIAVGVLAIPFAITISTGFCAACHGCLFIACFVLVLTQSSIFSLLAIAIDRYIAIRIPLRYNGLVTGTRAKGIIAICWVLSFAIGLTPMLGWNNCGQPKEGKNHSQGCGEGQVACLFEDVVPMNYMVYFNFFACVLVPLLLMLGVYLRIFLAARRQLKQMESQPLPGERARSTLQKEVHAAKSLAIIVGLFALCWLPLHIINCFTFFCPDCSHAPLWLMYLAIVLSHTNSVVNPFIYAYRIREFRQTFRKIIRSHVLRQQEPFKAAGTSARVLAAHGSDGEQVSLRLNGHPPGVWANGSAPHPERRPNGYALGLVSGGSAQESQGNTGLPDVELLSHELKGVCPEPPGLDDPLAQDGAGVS
Compound,Ki (Adenosine A2A Receptor) [nM],further results
"Cc1ncoc1-c1c(-c2cccc(C#N)c2)nc(N)c2nc(C(N)c3c(F)cccc3F)nn12 (single isomer, unassigned) [Compound 11, 3-(8-amino-2-(amino(2,6-difluorophenyl)methyl)-5-(4-methyloxazol-5-yl)-[1,2,4]triazolo[1,5-a]pyrazin-6-yl)benzonitrile]",< 10,EC50 [1]: < 10 nM
"Cn1nc(-c2c(-c3cccc(C#N)c3)nc(N)c3nc(Cc4ccccn4)nn23)ccc1=O [Compound 9, 3-(8-Amino-5-(1-methyl-6-oxo-1,6-dihydropyridazin-3-yl)-2-(pyridin-2-ylmethyl)-[1,2,4]triazolo[1,5-a]pyrazin-6-yl)benzonitrile]",–,Percent TGI (Day 47 Tumor Growth Inhibition) [2]: 18.42%
"N#Cc1cccc(-c2nc(N)c3nn(Cc4ccccn4)nc3c2-c2ccncn2)c1 [Compound 13, 3-(4-amino-2-(pyridin-2-ylmethyl)-7-(pyrimidin-4-yl)-2H-[1,2,3]triazolo[4,5-c]pyridin-6-yl)benzonitrile]",< 10,–
"N#Cc1cccc(-c2nc(N)c3nn(Cc4ncccc4F)nc3c2-c2ccncn2)c1 [Compound 14, 3-(4-amino-2-((3-fluoropyridin-2-yl)methyl)-7-(pyrimidin-4-yl)-2H-[1,2,3]triazolo[4,5-c]pyridin-6-yl)benzonitrile]",< 10,–
"N#Cc1cccc(-c2nc(N)c3nn(Cc4ncccc4F)nc3c2-c2ccncc2)c1 [Compound 15, 3-(4-amino-2-((3-fluoropyridin-2-yl)methyl)-7-(pyridin-4-yl)-2H-[1,2,3]triazolo[4,5-c]pyridin-6-yl)benzonitrile]",< 10,–
"Cn1nccc1-c1c(-c2cccc(C#N)c2F)nc(N)c2nn(Cc3ccccn3)nc12 [Compound 16, 3-(4-amino-7-(1-methyl-1H-pyrazol-5-yl)-2-(pyridin-2-ylmethyl)-2H-[1,2,3]triazolo[4,5-c]pyridin-6-yl)-2-fluorobenzonitrile]",< 10,–
"CCCCCn1c2cc(-c3cnn(Cc4cncc(Cl)c4)c3)[nH]c2c(=O)n2c(C)nnc12 [Compound 17, 7-(1-((5-Chloropyridin-3-yl)methyl)-1H-pyrazol-4-yl)-3-methyl-9-pentyl-6,9-dihydro-5H-pyrrolo[3,2-d][1,2,4]triazolo[4,3-a]pyrimidin-5-one]",< 10,–
"CCCCCn1c2cc(-c3cnn(Cc4cncc(C)c4)c3)[nH]c2c(=O)n2c(C)nnc12 [Compound 18, 3-Methyl-7-(1-((5-methylpyridin-3-yl)methyl)-1H-pyrazol-4-yl)-9-pentyl-6,9-dihydro-5H-pyrrolo[3,2-d][1,2,4]triazolo[4,3-a]pyrimidin-5-one]",< 10,–
"CCCCCn1c2cc(-c3cnn(Cc4cnc5ccsc5c4)c3)[nH]c2c(=O)n2c(C)nnc12 [Compound 19, 3-Methyl-9-pentyl-7-(1-(thieno[3,2-b]pyridin-6-ylmethyl)-1H-pyrazol-4-yl)-6,9-dihydro-5H-pyrrolo[3,2-d][1,2,4]triazolo[4,3-a]pyrimidin-5-one]",< 10,–
"CCCCCn1c2cc(-c3cnn(Cc4ccc5c(c4)CCN(C(=O)CN(C)C)C5)c3)[nH]c2c(=O)n2c(C)nnc12 [Compound 20, 7-(1-((2-(2-(Dimethylamino)acetyl)-1,2,3,4-tetrahydroisoquinolin-6-yl)methyl)-1H-pyrazol-4-yl)-3-methyl-9-pentyl-6,9-dihydro-5H-pyrrolo[3,2-d][1,2,4]triazolo[4,3-a]pyrimidin-5-one]",< 10,–
"retifanlimab: humanized IgG4 monoclonal antibody that binds to human PD-1; heavy chain SEQ ID NO:2, light chain SEQ ID NO:3",–,Percent TGI (Day 47 Tumor Growth Inhibition) [2]: 9.57%

# Now from value to compound, other results behind:
Ki (Adenosine A2A Receptor) [nM],Compound,further results
< 10,"N#Cc1cccc(-c2nc(N)n3nc(C(O)c4c(F)cccc4F)nc3c2-c2ccncn2)c1 (single isomer, unassigned) [Compound 2, 3-(5-Amino-2-((2,6-difluorophenyl)(hydroxy)methyl)-8-(pyrimidin-4-yl)-[1,2,4]triazolo[1,5-c]pyrimidin-7-yl)benzonitrile]",–
< 10,"CN1CCC(NCc2cccc(F)c2C(O)c2nc3cc(-c4cccc(C#N)c4F)nc(N)n3n2)C1=O (single isomer, unassigned) [Compound 8, 3-(5-Amino-2-((2-fluoro-6-(((1-methyl-2-oxopyrrolidin-3-yl)amino)methyl)phenyl)(hydroxy)methyl)-[1,2,4]triazolo[1,5-c]pyrimidin-7-yl)-2-fluorobenzonitrile]",–
< 10,"N#Cc1cccc(-c2nc(N)n3nc(Cc4ccccn4)nc3c2-c2ccncn2)c1 [Compound 1, 3-(5-Amino-2-(pyridin-2-ylmethyl)-8-(pyrimidin-4-yl)-[1,2,4]triazolo[1,5-c]pyrimidin-7-yl)benzonitrile]",–
< 10,"Cc1cccnc1COc1nc2c(-c3ccncn3)c(-c3cccc(C#N)c3)nc(N)n2n1 [Compound 4, 3-(5-Amino-2-((3-methylpyridin-2-yl)methoxy)-8-(pyrimidin-4-yl)-[1,2,4]triazolo[1,5-c]pyrimidin-7-yl)benzonitrile]",–
< 10,"N#Cc1cccc(-c2cc3nc(C(O)c4ccccc4)nn3c(N)n2)c1 (stereo not shown) [Compound 5, 3-(5-Amino-2-(hydroxy(phenyl)methyl)-[1,2,4]triazolo[1,5-c]pyrimidin-7-yl)benzonitrile]","EC50 [1, 3]: < 10 nM"
< 10,"N#Cc1cccc(-c2cc3nc(C(O)c4c(F)cccc4F)nn3c(N)n2)c1F (stereo not shown) [Compound 6, 3-(5-Amino-2-((2,6-difluorophenyl)(hydroxy)methyl)-[1,2,4]triazolo[1,5-c]pyrimidin-7-yl)-2-fluorobenzonitrile]","EC50 [1, 3]: < 10 nM"
< 10,"N#Cc1cccc(-c2nc(N)n3nc(C(O)c4c(F)cccc4F)nc3c2C#N)c1F (stereo not shown) [Compound 7, 5-Amino-7-(3-cyano-2-fluorophenyl)-2-((2,6-difluorophenyl)(hydroxy)methyl)-[1,2,4]triazolo[1,5-c]pyrimidine-8-carbonitrile]","EC50 [1, 3]: < 10 nM"
